{"source": "paper PMC10223284", "about": "“Category-Based Toxicokinetic Evaluations of Data-Poor Per- and Polyfluoroalkyl Substances (PFAS) using Gas Chromatography Coupled with Mass Spectrometry” (Toxics, 2023)", "key": {"[1]": {"test": "Hepatic metabolic stability (hepatocyte clearance) assay, substrate depletion", "type": "in vitro ADME, human", "conditions": "both sexes, human, hepatocytes", "method_in_brief": "(§1)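 Pooled 50-donor human cryopreserved hepatocytes (50,000 cells/100 μL) incubated with 1 μM compound at 37 °C with shaking. Parent loss quantified against internal standards over time to T240 in triplicate; T½ and Clint (μL/min/million cells) from ln concentration vs time, corrected for abiotic loss in cell-free and inactivated-hepatocyte controls.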"}, "[2]": {"tested_on": "pooled human cryopreserved primary hepatocyte suspensions", "test": "Hepatic metabolic stability (hepatocyte clearance) assay, substrate depletion", "type": "in vitro ADME", "method_in_brief": "as §1"}, "[3]": {"test": "Abiotic loss in negative controls of the hepatocyte clearance assay (cell-free media, metabolically inactivated hepatocytes)", "type": "in vitro ADME", "method_in_brief": "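Test compound at 1 μM incubated at 37 °C with shaking in complete William's medium E, either cell-free or with metabolically inactivated hepatocytes, then quenched with ice-cold acetonitrile for quantitative analysis.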"}, "[4]": {"test": "In vitro-in vivo extrapolation (IVIVE) to Css and administered equivalent dose (AED)", "parameters": "species or system human", "method_in_brief": "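Measured plasma protein binding (fup) and hepatocyte Clint served as IVIVE inputs to estimate human steady-state plasma concentration (Css). fup was converted to blood unbound fraction using blood:plasma partitioning, and Clint was scaled to whole-liver clearance (L/h). AEDs were derived by combining Css with published in vitro lowest-observed effective concentrations.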"}, "human plasma [5]": {"tested_on": "human plasma"}, "human plasma [6]": {"tested_on": "human plasma", "remark": "listed apart in the source"}, "human primary cells": {"tested_on": "human primary cells", "conditions": "cited from earlier work"}, "in vitro": {"test": "in vitro", "conditions": "both, human, plasma"}, "[7]": {"conditions": "both, human, plasma, 5 h, 10 μM"}, "[8]": {"conditions": "Fraction Unbound (fu), Run-specific Avg"}}, "note": "Values joined by “and” are separate entries in the source; they are usually repeats but may differ in a detail not shown here. Equal entries are not always repeated. Where two headings read alike, the source gives them in different places."}
{"smiles": "OCC(F)(F)OC(F)(F)C(F)(F)OC(F)(F)CO", "note": "[1H,1H,8H,8H-Perfluoro-3,6-dioxaoctane-1,8-diol]", "values": [{"measurement": "half-life at 1 μM", "setting": "[1]", "value": 3.44, "unit": "h"}, {"measurement": "hepatocyte CLint at 1 μM", "setting": "[1]; Bkgd Adj Clint", "value": 6.72, "unit": "µL/min/1e6 cells"}, {"measurement": "hepatocyte CLint at 1 μM", "setting": "[1]; Bkgd-Sub Clearance (µL/min/106 hepatocytes)", "value": 6.72, "unit": "µL/min/1e6 cells"}, {"measurement": "hepatocyte CLint at 1 μM", "setting": "[1]; Bkgd_adj_Clint", "value": 6.72, "unit": "µL/min/1e6 cells"}, {"measurement": "hepatocyte CLint at 1 μM", "setting": "[1]; In Vitro Clint", "value": 6.72, "unit": "µL/min/1e6 cells"}, {"measurement": "hepatocyte CLint at 1 μM", "setting": "[1]; Linear Regression Results, Best-Fit Values, Clearance", "value": 6.72, "unit": "µL/min/1e6 cells"}, {"measurement": "hepatocyte CLint at 1 μM", "setting": "[1]; Unadj Clint", "value": 6.72, "unit": "µL/min/1e6 cells"}, {"measurement": "hepatocyte CLint at 1 μM", "setting": "[1]; Unadj in vitro Clint", "value": 6.72, "unit": "µL/min/1e6 cells"}, {"measurement": "Linear Regression Results, Best-Fit Values, Slope", "setting": "[2]; hepatocyte time course", "value": -0.003361}, {"measurement": "Clint.1.Med", "setting": "[2]; human, s9", "value": 0}, {"measurement": "No Cells BkgdCl, Clearance", "setting": "[3]; 1 μM", "value": 3.324}, {"measurement": "HT BkgdCl, Clearance", "setting": "[3]; both, human, 1 μM", "value": 0}, {"measurement": "Hep_Stab_Fail", "setting": "[3]; both, human, 120 min, 1 μM", "value": 0}, {"measurement": "half-life at 1 μM", "setting": "[3]; buffer", "value": 6.95, "unit": "h"}, {"measurement": "HT BkgdCl, Slope", "setting": "[3]; heat treated hepatocytes control, 0 vs 240 min", "value": -0.0009212}, {"measurement": "No Cells BkgdCl, Slope", "setting": "[3]; no cells control, 0 vs 240 min", "value": -0.00166}, {"measurement": "Css", "setting": "[4]; Assuming 1 mg/kg/day dose rate, BW 70 kg", "value": "0.13 mg/L and 0.43 uM"}, {"measurement": "Clhep", "setting": "[4]; IVIVE, hepatocyte Clint scaled to whole-liver clearance", "value": 20.549, "unit": "L/h"}, {"measurement": "AED", "setting": "[4]; administered equivalent dose from LOEC and Css", "value": 16.1536, "unit": "mg/kg/day"}, {"measurement": "Fub", "setting": "[4]; fub=fup/(B:P), Fub set to 1 if needed", "value": 0.3762}, {"measurement": "Css", "setting": "[4]; human steady-state plasma concentration, assuming 1 mg/kg/day dosage", "value": 0.43, "unit": "µM"}, {"measurement": "CLint", "setting": "[4]; scaled with HPGL 110 mill cells/g, Vl 1596 g", "value": 1179763, "unit": "µL/min"}, {"measurement": "Aqueous Fraction, Run-specific Avg", "setting": "human plasma [5]; both, human, 5 h, 10 μM", "value": 1857.99}, {"measurement": "Fup.Med", "setting": "human plasma [5]; both, human, 5 h, 10 μM", "value": 0.191}, {"measurement": "Fup.point", "setting": "human plasma [5]; both, human, 5 h, 10 μM", "value": 0.207}, {"measurement": "fup", "setting": "human plasma [5]; both, human, 5 h, 10 μM", "value": 0.2069}, {"measurement": "Time 1 hr, Run-specific Avg", "setting": "human plasma [6]; both, human, 10 μM", "value": 8416.46}, {"measurement": "Fstable.Med", "setting": "human plasma [6]; both, human, 5 h, 10 μM", "value": 0.999}, {"measurement": "Mean Stability", "setting": "human plasma [6]; both, human, 5 h, 10 μM", "value": 1.067}, {"measurement": "Stability (T5hr/ T1hr), Run-specific Avg", "setting": "human plasma [6]; both, human, 5 h, 10 μM", "value": 1.023}, {"measurement": "Time 5 hr, Run-specific Avg", "setting": "human plasma [6]; both, human, 5 h, 10 μM", "value": 8614.09}, {"measurement": "PPB_Stab_Fail", "setting": "human plasma [6]; [7]", "value": 0}, {"measurement": "LOEC", "setting": "human primary cells; BioSeek lowest-observed effect concentration used for AED", "value": 7.00, "unit": "µM"}, {"measurement": "LOEC", "setting": "human primary cells; minimum lowest-observed effect concentration, BioSeek platform", "value": 7, "unit": "µM"}, {"measurement": "fraction unbound at 5 h, 10 μM", "setting": "in vitro; Fraction Unbound (fu)", "value": 0.188}, {"measurement": "fraction unbound at 5 h, 10 μM", "setting": "in vitro; [8]", "value": 0.21}, {"measurement": "fraction unbound at 5 h, 10 μM", "setting": "in vitro; Mean Fu", "value": 0.207}, {"measurement": "fraction unbound at 5 h, 10 μM", "setting": "in vitro; Mean fu", "value": 0.207}]}
{"smiles": "COC(=O)C(F)(F)C(F)(F)OC(F)(C(F)(F)F)C(F)(F)OC(F)=C(F)F", "note": "(centres unmarked) [Methyl perfluoro(3-(1-ethenyloxypropan-2-yloxy)propanoate)]", "values": [{"measurement": "Hep_Stab_Fail", "setting": "[3]; both, human, 120 min, 1 μM", "value": 1}, {"measurement": "Aqueous Fraction, Run-specific Avg", "setting": "human plasma [5]; both, human, 5 h, 10 μM", "value": 200.27}, {"measurement": "Fup.Med", "setting": "human plasma [5]; both, human, 5 h, 10 μM", "value": 0.0161}, {"measurement": "Fup.point", "setting": "human plasma [5]; both, human, 5 h, 10 μM", "value": 0.0235}, {"measurement": "Unstable", "setting": "human plasma [6]", "value": "Y"}, {"measurement": "Time 1 hr, Run-specific Avg", "setting": "human plasma [6]; both, human, 10 μM", "value": 11859.81}, {"measurement": "Fstable.Med", "setting": "human plasma [6]; both, human, 5 h, 10 μM", "value": 0.224}, {"measurement": "Mean Stability", "setting": "human plasma [6]; both, human, 5 h, 10 μM", "value": 0.836}, {"measurement": "Stability (T5hr/ T1hr), Run-specific Avg", "setting": "human plasma [6]; both, human, 5 h, 10 μM", "value": 0.726}, {"measurement": "Time 5 hr, Run-specific Avg", "setting": "human plasma [6]; both, human, 5 h, 10 μM", "value": 8614.65}, {"measurement": "PPB_Stab_Fail", "setting": "human plasma [6]; [7]", "value": 1}, {"measurement": "fraction unbound at 5 h, 10 μM", "setting": "in vitro; [8]", "value": 0.0232}, {"measurement": "fraction unbound at 5 h, 10 μM", "setting": "in vitro; Mean Fu", "value": 0.023}]}
{"smiles": "C=C(C)C(=O)OCCC(F)(F)C(F)(F)C(F)(F)C(F)(F)C(F)(F)C(F)(F)C(F)(F)C(F)(F)F", "note": "[8:2 Fluorotelomer methacrylate]", "values": [{"measurement": "Hep_Stab_Fail", "setting": "[3]; flag for stability failure in hepatocyte clearance assay controls (1 or Fst = fail, 0 = pass)", "value": 1}, {"measurement": "Fup.Med", "setting": "human plasma [5]", "value": 0.0461}, {"measurement": "Fup.point", "setting": "human plasma [5]", "value": 0.0503}, {"measurement": "Mean fu", "setting": "human plasma [5]; human, plasma", "value": 0.09}, {"measurement": "Fstable.Med", "setting": "human plasma [6]", "value": 0.0797}, {"measurement": "Unstable", "setting": "human plasma [6]", "value": "Y"}, {"measurement": "% remaining_PPB", "setting": "human plasma [6]; human, plasma", "value": 66, "unit": "%"}, {"measurement": "PPB_Stab_Fail", "setting": "human plasma [6]; human, plasma", "value": 0}]}
